Data: patent US20130231296A1, “NEW DRUG COMBINATIONS FOR THE TREATMENT OF MALARIA” (Bioagency AG, priority 2010, published 2013)
Like-named read-outs stand apart in the source and are kept apart here.

Assays:
P. falciparum 3D7 = test: in vitro inhibition of parasite growth by [3H] hypoxanthine incorporation, drugs alone; type: cell-based; conditions: Plasmodium falciparum; for IC50: 3D7, P. falciparum 3D7 (chloroquine sensitive)
Experimental: (§1) 1. Initial determination of the in vitro efficacy profile (IC50/IC90) of FOS and PIP against a drug sensitive and a drug resistant strain of Plasmodium falciparum. P. falciparum 3D7 is chloroquine sensitive, P. falciparum K1 is insensitive to chloroquine
(§2) in vitro inhibition of parasite growth was assessed by the incorporation of [3H] hypoxanthine, including chloroquine (CQ) and artesunate (ASN) as positive control drugs.
(§3) The first set of in vitro experiments established the IC50 values of the drugs alone, followed by Fixed Ratio Combination assays of FOS+PIP with FOS+CND as a control combination. Chloroquine and artesunate were included in all assays to ensure the validity of the test.
(§4) The first sets of experiments were carried out to establish the IC50 and IC90 values of the drugs on their own. The drugs were evaluated in 3 separate experiments (see Tables 1 & 2)

P. falciparum K1 = test: as above; type: cell-based; conditions: Plasmodium falciparum; for IC50: K1, P. falciparum K1 (insensitive to chloroquine)
Experimental: as §1, §2, §3, §4

[1] = 3D7, P. falciparum 3D7, Experiment 1
[2] = 3D7, P. falciparum 3D7, Experiment 2
[3] = 3D7, P. falciparum 3D7, Experiment 3

SMILES	IC50 (P. falciparum 3D7; Experiment 1)	IC50 (P. falciparum 3D7; Experiment 2)	IC50 (P. falciparum 3D7; Experiment 3)	IC90 (P. falciparum 3D7; [1])	IC90 (P. falciparum 3D7; [2])	IC90 (P. falciparum 3D7; [3])	IC50 (P. falciparum K1; Experiment 1)	IC50 (P. falciparum K1; Experiment 2)	IC50 (P. falciparum K1; Experiment 3)	IC90 (P. falciparum K1; K1, P. falciparum K1, Experiment 1)	IC90 (P. falciparum K1; K1, P. falciparum K1, Experiment 2)	IC90 (P. falciparum K1; K1, P. falciparum K1, Experiment 3)	IC50 (P. falciparum K1; Experiment 1, read-out: IC50)	IC50 (P. falciparum K1; Experiment 2, read-out: IC50)	IC50 (P. falciparum K1; Experiment 3, read-out: IC50)	IC90 (P. falciparum K1; K1, P. falciparum K1, Experiment 1, read-out: IC90)	IC90 (P. falciparum K1; K1, P. falciparum K1, Experiment 2, read-out: IC90)	IC90 (P. falciparum K1; K1, P. falciparum K1, Experiment 3, read-out: IC90)
C[C@H]1[C@H](OC(=O)CCC(=O)O)O[C@@H]2O[C@@]3(C)CC[C@H]4[C@H](C)CC[C@@H]1[C@@]24OO3 [ASN, Artesunate]	1.9 ng/mL	2 ng/mL	0.8 ng/mL	7 ng/mL	2 ng/mL	2 ng/mL	5 ng/mL	2 ng/mL	2 ng/mL	6 ng/mL	3 ng/mL	4 ng/mL						
Clc1ccc2c(N3CCN(CCCN4CCN(c5ccnc6cc(Cl)ccc56)CC4)CC3)ccnc2c1 [PIP, 7-chloro-4-[4-[3-[4-(7-chloroquinolin-4-yl)piperazin-1-yl]propyl]piperazin-1-yl]quinoline]	10 ng/mL	6 ng/mL	10 ng/mL	18 ng/mL	20 ng/mL	10 ng/mL							20 ng/mL	20 ng/mL	10 ng/mL	60 ng/mL	50 ng/mL	20 ng/mL
